# In ChEMBL document CHEMBL4680232, “Discovery of small molecules targeting GRP78 for antiangiogenic and anticancer therapy” (Eur J Med Chem, 2020):
# The source made the active and inactive calls. No cut-off for these calls is given here.
# What was measured:
# HUVEC [1] = test: Antiangiogenic activity against VEGF-stimulated HUVEC assessed as reduction in cell viability measured after 48 hrs by MTT assay; format: functional, cell-based; conditions: Homo sapiens
# HUVEC [2] = test: Antiangiogenic activity against VEGF-stimulated HUVEC assessed as reduction in cell viability at 100 uM measured after 48 hrs by MTT assay relative to control; format: functional
# [3] = biological target: Endoplasmic reticulum chaperone BiP (Homo sapiens) (UniProt P11021); test: Binding affinity to human GRP78 at 1 uM measured after 30 mins by UF-ASMS analysis relative to control
# [4] = biological target: Endoplasmic reticulum chaperone BiP (Homo sapiens) (UniProt P11021); conditions: dose 500.0 µM
# Description: Binding affinity to N-terminal His-tagged GRP78 (unknown origin) assessed as change in melting temperature at 500 uM by differential scanning fluorimetry
# 786-0 [5] = test: Cytotoxicity against human 786-0 cells assessed reduction in cell viability after 48 hrs by MTT assay; format: functional
# HUVEC [6] = test: Antiangiogenic activity against VEGF-stimulated HUVEC assessed as reduction in cell viability at 10 uM measured after 48 hrs by MTT assay relative to control; format: functional, Homo sapiens
# HUVEC [7] = test: Antiangiogenic activity against VEGF-stimulated HUVEC assessed as reduction in cell viability up to 100 uM measured after 48 hrs by MTT assay; format: functional, cell-based; conditions: Homo sapiens, dose microM <=100, time 48.0 hrs
# 786-0 [8] = test: Cytotoxicity against human 786-0 cells assessed reduction in cell viability at 100 uM after 48 hrs by MTT assay; format: functional, cell-based
# 786-0 [9] = test: Cytotoxicity against human 786-0 cells assessed reduction in cell viability at 10 uM after 48 hrs by MTT assay; format: functional, cell-based
# Sequence of Endoplasmic reticulum chaperone BiP (Homo sapiens) (P11021 whole entry): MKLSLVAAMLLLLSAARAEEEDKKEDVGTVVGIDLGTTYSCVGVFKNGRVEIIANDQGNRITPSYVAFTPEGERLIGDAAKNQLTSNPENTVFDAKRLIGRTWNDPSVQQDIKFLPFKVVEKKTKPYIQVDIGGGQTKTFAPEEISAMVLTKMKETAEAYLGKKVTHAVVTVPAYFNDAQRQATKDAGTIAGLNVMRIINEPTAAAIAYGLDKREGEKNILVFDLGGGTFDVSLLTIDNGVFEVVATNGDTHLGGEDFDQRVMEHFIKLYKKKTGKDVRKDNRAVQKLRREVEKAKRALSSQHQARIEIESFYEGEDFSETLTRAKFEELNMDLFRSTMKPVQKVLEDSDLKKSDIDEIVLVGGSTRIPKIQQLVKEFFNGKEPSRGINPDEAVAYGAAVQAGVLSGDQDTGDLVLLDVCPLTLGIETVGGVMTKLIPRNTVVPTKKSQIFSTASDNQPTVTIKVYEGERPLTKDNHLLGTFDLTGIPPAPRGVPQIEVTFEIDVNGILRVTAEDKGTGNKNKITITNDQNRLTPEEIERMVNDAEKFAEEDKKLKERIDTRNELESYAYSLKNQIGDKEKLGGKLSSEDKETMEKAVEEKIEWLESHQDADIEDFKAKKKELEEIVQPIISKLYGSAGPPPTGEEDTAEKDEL
SMILES,CC50 (HUVEC [1]; time 48 hrs),Activity (HUVEC [2]; Homo sapiens),RBA [3],also measured
CC(C)CNC(=O)c1c(-c2ccc(COC(=O)Cc3ccc(O)cc3)cc2)oc2ccccc12,100 µM,Active,,
CC(C)CNC(=O)c1c(-c2ccc(COC(=O)c3ccccc3)cc2)oc2ccccc12,100 µM,Active,,
O=c1[nH]c2ccc(OCCc3ccccc3)nc2[nH]c1=O,,,536%,
CCCCNC(=O)c1c(-c2ccc(COC(=O)c3ccc(O)cc3)cc2)oc2ccccc12,100 µM,Active,,
Nc1ncnc2c1ncn2[C@@H]1O[C@H](COP(=O)(O)OP(=O)(O)OP(=O)(O)O)[C@@H](O)[C@H]1O,,,,ΔTm [4]: 4.65 °C
C=CCc1ccc(O)c(-c2ccc(O)c(CC=C)c2)c1,,Active,,
CC(C)CNC(=O)c1cccc2nc(-c3ccc(COC(=O)Cc4ccc(O)cc4)cc3)oc12,10 µM,Active,,CC50 (786-0 [5]): 10 µM
Nc1ccc2[nH]c(=O)c(=O)[nH]c2c1,,,119%,
COc1cc(OC)cc(C(=O)OCc2ccc(-c3oc4ccccc4c3C(=O)NCC(C)C)cc2)c1,10 µM,,143%,CC50 (786-0 [5]): 10 µM; EC50 (HUVEC [1]; 48 h): 1.51 µM; ΔTm [4]: 2.65 °C; Activity (HUVEC [6]): 50%
COc1ccc(OC)c(/C=C(\C#N)c2ccc(-c3oc4ccccc4c3C(=O)NCC(C)C)cc2)c1,100 µM,,,
CC(C)CNC(=O)c1c(-c2ccc(COC(=O)/C=C/c3ccc(O)cc3)cc2)oc2ccccc12,100 µM,Active,,
CC(C)CNC(=O)c1c(-c2ccc(COC(=O)c3ccccc3O)cc2)oc2ccccc12,10 µM,,501%,Activity (HUVEC [6]): 50%
CC(=O)Nc1ccc(OCc2ccc(-c3oc4ccccc4c3C(=O)NCC(C)C)cc2)cc1,10 µM,,61%,Activity (HUVEC [6]): 50%
CC(C)CNC(=O)c1c(-c2ccc(COC(=O)c3cc(O)cc(O)c3)cc2)oc2ccccc12,100 µM,Active,,
O=c1[nH]c2nccc(OCCc3ccccc3)c2[nH]c1=O,,,1000%,
CCOS(=O)(=O)/C=C/c1ccc(OC)c(OCCc2nc(-c3ccccc3)sc2C)c1,,,129%,
O=C(/C=C/c1ccc(O)c(O)c1)OCCc1ccc(Br)cc1,,,90%,Activity (HUVEC [2]): 50%; Activity (HUVEC [6]; Homo sapiens): inactive
COc1ccc(/C=C/C(=O)OCCc2ccccc2)cc1,,,64%,
O=C(O[C@@H]1Cc2c(O)cc(O)cc2O[C@@H]1c1cc(O)c(O)c(O)c1)c1cc(O)c(O)c(O)c1,,,271%,Activity (HUVEC [7]): inactive
Cc1oc(-c2ccccc2)nc1CCOc1cccc2oc(CCC(=O)O)nc12,,,160%,
CC(C)CNC(=O)c1c(-c2ccc(COC(=O)c3ccc(N(C)C)cc3)cc2)oc2ccccc12,100 µM,,54%,Activity (HUVEC [2]): 50%; Activity (HUVEC [6]; Homo sapiens): inactive
O=C(/C=C/c1ccc(O)c(O)c1)OCCc1ccccc1,,,98%,
COC(=O)c1c(-c2ccc(COC(=O)c3cc(O)cc(O)c3)cc2)oc2ccccc12,10 µM,Active,,Activity (786-0 [8]): Active; ΔTm [4]: -0.76 °C; Activity (786-0 [9]): inactive
CC(C)CNC(=O)c1c(-c2ccc(COc3ccc(CO)cc3)cc2)oc2ccccc12,10 µM,Active,,CC50 (786-0 [5]): 10 µM
CC(C)CNC(=O)c1c(-c2ccc(CO)cc2)oc2ccccc12,,,180%,CC50 (HUVEC [1]): inactive; Activity (HUVEC [7]): inactive
COc1cc(OC)cc(C(=O)OCc2ccc(-c3nc4cccc(C(=O)NCC(C)C)c4o3)cc2)c1,,,,CC50 (HUVEC [1]): inactive
CC(C)CNC(=O)c1c(-c2ccc(COC(=O)c3ccc(O)cc3)cc2)oc2ccccc12,100 µM,Active,,
